Data published in paper PMC10327353 (Breast Cancer Research : BCR, 2023).

How the values were obtained:
wild-type EGFR = biological target: T1, wild-type EGFR (Homo sapiens, UniProt P00533); experiment: pEGFR MSD assay in A431 cells; assay type: cell-based; conditions: A431, 4 hrs treatment, EGF stimulation
T1 construct: endogenous in cells; host or cells: A431
Description: (§1) A431 and BT474C1-Luci Mono1 cells were seeded in 96-well plates at 20,000 cells/well in DMEM medium containing 1% FBS. After overnight incubation, all cells were treated with compounds at a series of concentrations for 4 hrs. For A431 cell line, an extra stimulation with recombinant human EGF (100 ng/ml for 10 minutes) is applied to activate wild-type EGFR following compound treatment. pEGFR^Y1068 and total EGFR levels were measured by an electro chemiluminescent method (MULTI-SPOT®96 4-Spot HB Prototype EGFR Triplex […]: pEGFR (Y1068), Total EGFR; MESO SCALE DISCOVERY, Cat# N45ZB-1) with MSD SECTOR® Imager, which outputs the ratio of pEGFR/total EGFR for each well. pHER2^Y1248 and total HER2 levels were measured similarly using pHER2 (Y1248) Assay Whole Cell Lysate Kit (MESO SCALE DISCOVERY, Cat# K151CLD-3). The percentage of inhibition was calculated as: % Inhibition = 100 x [1 - (ratio of the sample well - ratio of Min ctrl well)/ (ratio of Max ctrl well - ratio of Min ctrl well)].

BT474C1 cells = experiment: Cell proliferation assay (CellTiter-Glo), BT474C1; assay type: cell-based, human; conditions: BT474C1, 72 hrs
Description: BT474C1-Luci Mono1 cells were seeded in 384-well plates at 1500 cells/well in DMEM medium containing 10% FBS and 1 mM Oxaloacetic acid (OAA). A431 cells were seeded in 384-well plates at 1,000 cells/well in DMEM medium containing 10% FBS. After overnight incubation, cells were treated with compounds at various concentrations for 3 days. Then cell viability was measured using a CellTiter-Glo Luminescent Cell Viability Assay from Promega Corp. according to the manufacturer's instructions.

P-gp (MDR1) = biological target: T2, P-gp (MDR1) (Homo sapiens, UniProt P08183); experiment: P-gp efflux ratio, bi-directional transport assay; assay type: in vitro ADME
T2 construct: expressed in transfected cells; host or cells: MDCKII-MDR1
T2 sequence (P08183 whole entry): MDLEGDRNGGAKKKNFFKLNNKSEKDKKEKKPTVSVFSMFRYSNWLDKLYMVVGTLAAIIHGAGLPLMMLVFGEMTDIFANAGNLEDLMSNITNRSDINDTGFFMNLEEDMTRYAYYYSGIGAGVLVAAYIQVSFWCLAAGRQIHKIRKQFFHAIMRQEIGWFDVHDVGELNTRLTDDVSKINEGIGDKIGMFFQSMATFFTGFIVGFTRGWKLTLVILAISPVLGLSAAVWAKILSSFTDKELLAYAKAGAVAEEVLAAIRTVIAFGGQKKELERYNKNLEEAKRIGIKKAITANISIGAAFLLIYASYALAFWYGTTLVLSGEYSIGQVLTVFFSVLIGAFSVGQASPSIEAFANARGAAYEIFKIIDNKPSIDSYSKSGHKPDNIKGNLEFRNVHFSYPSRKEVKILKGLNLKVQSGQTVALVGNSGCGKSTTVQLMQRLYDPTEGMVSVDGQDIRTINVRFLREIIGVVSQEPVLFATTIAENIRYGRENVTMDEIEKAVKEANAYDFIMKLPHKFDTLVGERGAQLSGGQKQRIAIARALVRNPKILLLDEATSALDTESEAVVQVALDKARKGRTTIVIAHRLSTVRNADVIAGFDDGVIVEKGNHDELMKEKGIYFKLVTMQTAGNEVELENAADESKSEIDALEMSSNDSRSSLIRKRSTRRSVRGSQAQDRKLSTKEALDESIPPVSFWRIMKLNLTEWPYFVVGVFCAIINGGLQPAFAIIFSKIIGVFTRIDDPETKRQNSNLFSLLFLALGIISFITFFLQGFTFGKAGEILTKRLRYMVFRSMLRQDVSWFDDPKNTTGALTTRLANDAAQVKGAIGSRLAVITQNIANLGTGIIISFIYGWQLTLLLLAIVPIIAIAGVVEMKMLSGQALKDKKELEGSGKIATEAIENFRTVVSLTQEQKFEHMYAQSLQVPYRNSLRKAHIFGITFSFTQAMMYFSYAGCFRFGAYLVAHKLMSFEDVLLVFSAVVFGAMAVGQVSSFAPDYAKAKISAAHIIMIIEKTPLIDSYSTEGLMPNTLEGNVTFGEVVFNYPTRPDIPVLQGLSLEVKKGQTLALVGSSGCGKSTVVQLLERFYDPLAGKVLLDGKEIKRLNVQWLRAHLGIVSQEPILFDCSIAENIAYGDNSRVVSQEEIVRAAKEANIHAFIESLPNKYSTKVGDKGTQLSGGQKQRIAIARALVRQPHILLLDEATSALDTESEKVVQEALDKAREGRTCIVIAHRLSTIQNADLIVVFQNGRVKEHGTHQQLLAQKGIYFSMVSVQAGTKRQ
Description: Passive permeability (Papp) characterizes the rate across the cell membrane due to passive diffusion. A high permeability enables the rapid establishment of equilibrium among plasma, CSF, and brain compartments. Except for passive permeability, sufficient unbound drug concentration in the brain is governed by efflux transporters, including P-gp (MDR1, ABCB1) and BCRP, at BBB. Efflux ratio (ER) reflects the liability of a compound to be pumped out of the brain by BBB efflux transporters, which is indicated by the distribution disequilibrium between the plasma and the brain compartments.
[…] The adjusted efflux ratio was used to determine if DZD1516/DZ2678 underwent active efflux. Verapamil, a P-glycoprotein (P-gp) inhibitor, was used to identify if any active transport processes were mediated through P-gp. The apical-to-basolateral (A-B) and basolateral-to-apical (B-A) transport of DZD1516/DZ2678 in HBSS (25 mM HEPES, pH 7.4) with 0.1% BSA was measured across MDCKII-MDR1 cell monolayers in the absence and presence of the P-gp inhibitor, verapamil (100 μM). The apical-to-basolateral (A-B) and basolateral-to-apical (B-A) transport of DZD1516/DZ2678 in HBSS (25 mM HEPES, pH 7.4) with 0.1% BSA was also measured across MDCKII cell monolayers in the absence and presence of the P-gp inhibitor, verapamil. Incubations were performed at approximately 37°C for 120 min, with the functionality of the test system being confirmed using 5 μM digoxin as a positive control substrate. […] determined by quantifying substrate concentration in the incubation medium of the donor compartment at the beginning of the incubation period and both donor and receiver compartments at the end of the incubation period. The data was used to calculate the apparent permeability (Papp). All incubations were performed in triplicate, and the integrity of the cell monolayers was confirmed using the marker Lucifer yellow.

HER2 = HER2 (Homo sapiens, UniProt P04626); experiment: pHER2 MSD assay in BT474C1 cells; assay type: cell-based; set-up: endogenous in cells; host or cells: BT474C1-Luci Mono1 (BT474 transfected with luciferase only); conditions: BT474C1, 4 hrs treatment
Sequence of HER2 (P04626 23-1255): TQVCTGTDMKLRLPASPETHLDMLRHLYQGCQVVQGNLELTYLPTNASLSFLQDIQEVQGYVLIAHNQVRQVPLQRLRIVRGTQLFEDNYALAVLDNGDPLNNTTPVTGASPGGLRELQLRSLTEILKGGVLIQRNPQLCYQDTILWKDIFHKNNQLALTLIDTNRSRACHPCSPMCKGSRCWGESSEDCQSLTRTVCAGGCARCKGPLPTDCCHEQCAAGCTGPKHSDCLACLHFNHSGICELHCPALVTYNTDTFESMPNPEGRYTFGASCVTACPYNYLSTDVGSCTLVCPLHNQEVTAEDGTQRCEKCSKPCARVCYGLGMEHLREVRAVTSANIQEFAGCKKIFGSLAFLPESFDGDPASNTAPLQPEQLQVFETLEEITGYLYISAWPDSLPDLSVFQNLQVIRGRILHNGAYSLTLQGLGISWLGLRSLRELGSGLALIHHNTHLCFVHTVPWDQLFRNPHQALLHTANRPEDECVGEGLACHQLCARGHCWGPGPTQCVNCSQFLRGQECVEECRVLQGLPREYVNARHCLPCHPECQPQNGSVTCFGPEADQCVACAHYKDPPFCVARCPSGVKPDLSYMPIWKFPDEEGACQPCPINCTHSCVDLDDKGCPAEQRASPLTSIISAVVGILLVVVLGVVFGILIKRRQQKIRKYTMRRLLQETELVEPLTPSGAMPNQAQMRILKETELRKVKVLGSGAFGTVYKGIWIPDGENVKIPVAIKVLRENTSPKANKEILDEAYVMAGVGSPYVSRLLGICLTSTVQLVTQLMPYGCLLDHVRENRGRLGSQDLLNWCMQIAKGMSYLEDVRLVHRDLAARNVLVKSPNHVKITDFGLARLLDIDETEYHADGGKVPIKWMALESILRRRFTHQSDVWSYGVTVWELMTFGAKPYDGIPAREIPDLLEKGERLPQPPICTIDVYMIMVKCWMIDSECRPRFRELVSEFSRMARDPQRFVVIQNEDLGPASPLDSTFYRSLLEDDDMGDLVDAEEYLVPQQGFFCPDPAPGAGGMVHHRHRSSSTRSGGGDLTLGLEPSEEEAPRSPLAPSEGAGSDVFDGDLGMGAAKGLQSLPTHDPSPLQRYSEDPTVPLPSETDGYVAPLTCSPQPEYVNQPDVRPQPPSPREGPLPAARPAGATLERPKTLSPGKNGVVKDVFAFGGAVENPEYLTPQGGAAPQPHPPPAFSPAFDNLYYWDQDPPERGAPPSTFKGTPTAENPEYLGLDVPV
Description: as §1

P-gp-BCRP = P-gp-BCRP efflux ratio, cellular transport assay; assay type: in vitro ADME, human; conditions: human, not told; 1 µM
Description: A discussion of the structure–activity relationship (SAR) cumulated in the design of DZD1516 (Fig. 1) is as follows. The HER2 inhibitory potency screening for SAR development was performed using HER2 and EGFR enzymatic assays. The cellular activity was evaluated in HER2+ cell line BT474C1 by measuring pHER2 and antiproliferation activities. Cellular transport assays measuring the permeability and efflux ratio of compounds in cells expressing human P-gp (MDR1) and BCRP were used to provide essential information for assessing their BBB penetration potential.

[1] = Human hepatocyte intrinsic clearance; assay type: in vitro ADME; conditions: human hepatocytes; for hepatocyte CLint: read-out: Human Heps Clint

T1 sequence (P00533 25-1210): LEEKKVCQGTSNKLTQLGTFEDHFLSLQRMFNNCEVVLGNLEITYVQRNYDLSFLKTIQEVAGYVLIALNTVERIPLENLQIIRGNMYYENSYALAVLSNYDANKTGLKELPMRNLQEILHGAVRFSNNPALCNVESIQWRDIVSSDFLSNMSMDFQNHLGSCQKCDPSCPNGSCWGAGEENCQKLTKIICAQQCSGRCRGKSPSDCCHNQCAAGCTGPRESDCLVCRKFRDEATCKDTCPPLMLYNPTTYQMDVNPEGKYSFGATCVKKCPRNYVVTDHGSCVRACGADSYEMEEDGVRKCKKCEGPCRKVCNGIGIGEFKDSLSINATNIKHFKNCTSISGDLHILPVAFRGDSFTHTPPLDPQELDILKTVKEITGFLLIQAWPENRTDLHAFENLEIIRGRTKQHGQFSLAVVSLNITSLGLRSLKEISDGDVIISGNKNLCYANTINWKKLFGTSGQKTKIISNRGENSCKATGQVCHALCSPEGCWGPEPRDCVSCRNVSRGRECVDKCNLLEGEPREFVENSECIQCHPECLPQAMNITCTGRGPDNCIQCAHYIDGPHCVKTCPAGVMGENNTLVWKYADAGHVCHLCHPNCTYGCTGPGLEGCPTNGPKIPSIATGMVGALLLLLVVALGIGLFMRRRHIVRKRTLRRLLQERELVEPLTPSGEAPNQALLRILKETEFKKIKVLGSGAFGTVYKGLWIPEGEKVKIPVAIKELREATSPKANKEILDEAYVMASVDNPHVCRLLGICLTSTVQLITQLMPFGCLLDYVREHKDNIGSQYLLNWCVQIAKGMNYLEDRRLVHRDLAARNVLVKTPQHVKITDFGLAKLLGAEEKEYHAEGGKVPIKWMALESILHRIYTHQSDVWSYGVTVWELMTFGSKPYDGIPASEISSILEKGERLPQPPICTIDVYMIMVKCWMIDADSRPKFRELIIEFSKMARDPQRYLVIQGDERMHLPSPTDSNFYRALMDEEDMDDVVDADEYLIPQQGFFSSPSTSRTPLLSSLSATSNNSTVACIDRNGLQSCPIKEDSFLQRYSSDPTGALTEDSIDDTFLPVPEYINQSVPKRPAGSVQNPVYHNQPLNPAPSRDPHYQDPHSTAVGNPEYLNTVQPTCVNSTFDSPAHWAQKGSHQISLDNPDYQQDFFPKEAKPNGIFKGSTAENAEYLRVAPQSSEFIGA

Row | Compound | IC50 (wild-type EGFR) | GI50 (BT474C1 cells) | IC50 (HER2) | GI50 (BT474C1 cells; Homo sapiens) | hepatocyte CLint [1] | also measured
1 | Cc1cc(Nc2ncnc3cccc(OC4CCN(C)CC4)c23)ccc1Oc1ccn2ncnc2c1 [Cpd-1] | > 10000 nM | 91 nM | 18 nM | – | – | Efflux ratio P-gp @1 µM (P-gp (MDR1)): 1.5
2 | Cc1cc(Nc2ncnc3ccc(NC4=NC(C)(C)CO4)cc23)ccc1Oc1ccn2ncnc2c1 [Tucatinib, reference compound] | 2770 nM | – | 1.7 nM | 10 nM | 12.5 µL/min/1e6 cells | efflux ratio at 120 min, 1 µM (P-gp (MDR1); human, MDCK-MDR1, pH 7.4): 6.2; efflux ratio at 1 µM (P-gp-BCRP): 64
3 | CCOc1cc2ncc(C#N)c(Nc3ccc(OCc4ccccn4)c(Cl)c3)c2cc1NC(=O)/C=C/CN(C)C [Neratinib, reference compound] | – | – | – | 1.3 nM | 7.7 µL/min/1e6 cells | –
4 | CS(=O)(=O)CCNCc1ccc(-c2ccc3ncnc(Nc4ccc(OCc5cccc(F)c5)c(Cl)c4)c3c2)o1 [Lapatinib] | – | – | – | 13 nM | – | –
5 | COc1cc(O[C@@H]2CCN(C)CC2(F)F)c2c(Nc3ccc(Oc4ccn5ncnc5c4)c(C)c3)ncnc2c1 [Cpd-4] | – | 67 nM | 44 nM | – | – | Human Heps Clint [1]: 20.1 (µL/min)/(10^6 cells)
6 | CCOc1cc2ncc(C#N)c(Nc3ccc(OCc4ccccn4)c(Cl)c3)c2cc1NC(=O)/C=C/[C@H]1CCCN1C [Pyrotinib, reference compound] | – | – | 0.66 nM | 0.7 nM | – | –
